Reference: patent US10006089B2, “MCL-1 as a therapeutic target in SCFFBW7 deficient neoplasm” (Beth Israel Deaconess Medical Center, Inc., priority 2011, dated 2018)
“Also recorded” adds a separate entry of the source. Where a SMILES comes first, the peptide text is derived from it. The star is where a group is joined. Cbz = O=C(OCc1ccccc1)*

Legend:
Type in all cases: cell-based, human
T-ALL cell lines [1] = assay: 7-AAD/Annexin V double-staining FACS analysis of apoptosis; conditions: 48 hours; for effect of sorafenib on ABT-737 sensitivity (apoptosis by FACS): sorafenib and/or ABT-737, 10% FBS
Method: (§1) Cell culture including synchronization and transfection has been described^6,28. Wild type and Fbw7−/− DLD1 cell lines were kind gifts from Dr. Bert Vogelstein. Murine T-ALL cell lines derived from Tall transgenic mice were kind gifts from Dr. Michele A. Kelliher. Human T-ALL cell lines were previously described^2. Loucy and CMLT1 T-ALL cell lines were obtained from Jon Aster. For various assays described below, T-ALL cells were cultured in either 0.5% FBS or 10% FBS-containing medium for sorafenib (Alexis Biochemicals) or ABT-737 (Symansis) treatment. In the case of combined treatment with both sorafenib and ABT-737, T-ALL cells were maintained in 10% FBS-containing medium. Lentiviral shRNA virus packaging, retrovirus packaging, and subsequent infections were performed as described previously^28. For cell viability assays, cells were plated at 10,000 per well in 96-well plates, and incubated with the appropriate medium containing sorafenib, ABT-737 or DMSO for 48 h. Assays were performed with CellTiter-Glo Luminescent Cell Viability Assay kit according to the manufacturer's instructions (Promega). For detection of apoptosis, cells treated with various drugs were stained with propidium iodide (Roche), or co-stained with Annexin V-PE and 7-amino-actinomycin D (Annexin V-PE Apoptosis Detection Kit I, BD Bioscience) according to the manufacturer's instructions. Stained cells were sorted with Dako-Cytomation MoFlos sorter (Dako) at the Dana-Farber Cancer Institute FACS core facility.

T-ALL cell lines [2] = assay: Cell viability assay (CellTiter-Glo) of T-ALL cell lines; conditions: for sensitivity of Fbw7-deficient T-ALL cell lines compared with wild-type Fbw7 lines (cell viability): 0.5% FBS-containing medium, FIG. 13g; for sensitivity of Fbw7-deficient T-ALL cell lines (cell viability): 10% FBS-containing medium, FIG. 12a; for resistance of Fbw7-deficient T-ALL cell lines compared with wild-type Fbw7 lines to apoptotic stimuli (cell viability): FIG. 13c-f; for resistance after re-introduction of 3A-Mcl-1: FIG. 14e-f
Method: as §1

Mcl-1 [3] = assay: Protein degradation analysis of Myc-Mcl-1 in transfected 293T cells; conditions: 293T cells transfected with Myc-Mcl-1, HA-Fbw7, HA-GSK3, FIG. 9a
Method: Cells were transfected with Myc-Mcl-1 along with HA-Fbw7, or Flag-β-TRCP1, and GFP as a negative control, in the presence or absence of HA-GSK3 and/or HA-ERK1. For half-life studies, cycloheximide (20 μg/ml, Sigma) was added to the media 40 h post-transfection. At various time points thereafter, cells were lysed and protein abundances were measured by immunoblot analysis.

Mcl-1 [4] = assay: Immunoblot analysis of Mcl-1 expression in T-ALL cell lines; conditions: 0.5% FBS-containing medium, FIG. 13h
Method: Cells were lysed in EBC (50 mM Tris pH 8.0, 120 mM NaCl, 0.5% NP-40) buffer supplemented with protease inhibitors (Complete Mini, Roche) and phosphatase inhibitors (phosphatase inhibitor cocktail set I and II, Calbiochem). The protein concentrations of the lysates were measured using the Bio-Rad Bradford protein assay reagent on a Beckman Coulter DU-800 spectrophotometer. The lysates were then resolved by SDS-PAGE and immunoblotted with the indicated antibodies. For immunoprecipitation, 800 μg lysates were incubated with the appropriate antibody (1-2 μg) for 3-4 h at 4° C. followed by one-hour incubation with Protein-A Sepharose beads (GE Healthcare). Immuno-complexes were washed five times with NETN buffer (20 mM Tris, pH 8.0, 100 mM NaCl, 1 mM EDTA and 0.5% NP-40) before being resolved by SDS-PAGE and immunoblotted with the indicated antibodies. Quantification of the immunoblot band intensity was performed with Image J software.

CN(C)CC[C@H](CSc1ccccc1)Nc1ccc(S(=O)(=O)NC(=O)c2ccc(N3CCN(Cc4ccccc4-c4ccc(Cl)cc4)CC3)cc2)cc1[N+](=O)[O-] [ABT-737]
ABT-737-induced apoptosis in Fbw7-deficient T-ALL cells (T-ALL cell lines [1]; 10% FBS, FIG. 13j, also immunoblots of apoptotic biomarkers FIG. 12b): impaired
sensitivity of Fbw7-deficient T-ALL cell lines compared with wild-type Fbw7 lines (cell viability) (T-ALL cell lines [2]; 48 hours): resistant
sensitivity of Fbw7-deficient T-ALL cell lines (cell viability) (T-ALL cell lines [2]; 48 hours): resistant
resistance after re-introduction of wild-type or 3A-Mcl-1 (T-ALL cell lines [2]; DND41 cells, 10% FBS, 48 hours, FIG. 14b): increase in resistance
ABT-737 sensitivity after re-introduction of wild-type Fbw7 (T-ALL cell lines [2]; Fbw7-deficient CMLT1 cells, 10% FBS, 48 hours, FIG. 14a): partially restored its sensitivity
ABT-737 sensitivity after depletion of endogenous Mcl-1 (T-ALL cell lines [2]; Fbw7-deficient T-ALL cell lines, shMcl-1, 10% FBS, 48 hours, FIG. 12c): restored ABT-737 sensitivity

CC(C)C[C@@H](C=O)NC(=O)[C@H](CC(C)C)NC(=O)[C@H](CC(C)C)NC(=O)OCc1ccccc1 [MG132] (Cbz-Leu-Leu-Leu-aldehyde)
effect on Fbw7/GSK3-mediated Mcl-1 destruction (Mcl-1 [3]): blocked

COC(=O)Nc1nc2ccc(C(=O)c3cccs3)cc2[nH]1 [Nocodazole]
resistance of Fbw7-deficient T-ALL cell lines compared with wild-type Fbw7 lines to apoptotic stimuli (cell viability) (T-ALL cell lines [2]): more resistant

CC(=O)O[C@H]1C(=O)[C@@]2(C)[C@H]([C@H](OC(=O)c3ccccc3)[C@]3(O)C[C@H](OC(=O)[C@H](O)[C@@H](NC(=O)c4ccccc4)c4ccccc4)C(C)=C1C3(C)C)[C@]1(OC(C)=O)CO[C@@H]1C[C@@H]2O [Taxol]
resistance after re-introduction of 3A-Mcl-1 (T-ALL cell lines [2]; DND41 cells): increase in resistance
resistance of Fbw7-deficient T-ALL cell lines compared with wild-type Fbw7 lines to apoptotic stimuli (cell viability) (T-ALL cell lines [2]): more resistant

CC[C@@]1(O)C(=O)OCc2c1cc1n(c2=O)Cc2cc3ccccc3nc2-1 [camptothecin]
resistance after re-introduction of 3A-Mcl-1 (T-ALL cell lines [2]; DND41 cells): increase in resistance
resistance of Fbw7-deficient T-ALL cell lines compared with wild-type Fbw7 lines to apoptotic stimuli (cell viability) (T-ALL cell lines [2]): more resistant

COc1cc([C@@H]2c3cc4c(cc3[C@@H](O[C@@H]3O[C@@H]5CO[C@@H](C)O[C@H]5[C@H](O)[C@H]3O)[C@H]3COC(=O)[C@H]23)OCO4)cc(OC)c1O [etoposide]
resistance of Fbw7-deficient T-ALL cell lines compared with wild-type Fbw7 lines to apoptotic stimuli (cell viability) (T-ALL cell lines [2]): more resistant
sensitivity to induced apoptosis after re-introduction of wild-type Fbw7 (T-ALL cell lines [2]; Fbw7-deficient HPB-ALL and JRT3-T3.5 cells, FIG. 14d): partially restored their sensitivity

CNC(=O)c1cc(Oc2ccc(NC(=O)Nc3ccc(Cl)c(C(F)(F)F)c3)cc2)ccn1 [sorafenib]
effect on Mcl-1 expression (Mcl-1 [4]): effectively reduce Mcl-1 expression
effect of sorafenib on ABT-737 sensitivity (apoptosis by FACS) (T-ALL cell lines [1]; Fbw7-deficient CMLT1 and JRT3-T3.5 cells, FIG. 14h): restored ABT-737 sensitivity
effect of sorafenib on ABT-737 sensitivity (apoptosis by FACS) (T-ALL cell lines [1]; Fbw7-deficient HPB-ALL cells, FIG. 12e): significant increase in the induction of apoptosis; also recorded: restores ABT-737 sensitivity
sensitivity of Fbw7-deficient T-ALL cell lines compared with wild-type Fbw7 lines (cell viability) (T-ALL cell lines [2]; 48 hours): more sensitive
sensitivity of Fbw7-deficient T-ALL cell lines (cell viability) (T-ALL cell lines [2]; 48 hours): more sensitive
effect of sorafenib on ABT-737 sensitivity (cell viability) (T-ALL cell lines [2]; Fbw7-deficient HPB-ALL cells, combined with ABT-737, 10% FBS, 48 hours, FIG. 14g): dose-dependent increase of ABT-737 sensitivity; also recorded: restored ABT-737 sensitivity
